What all share (type): functional
Holding throughout (conditions): read-out: IZ

Test [1] relates to Pseudomonas aeruginosa. As to the kind of experiment: Antibacterial activity against Pseudomonas aeruginosa ATCC 9027 at 100 ug/ml by cup-plate method.
In test [2] the test system is Escherichia coli. In words: Antibacterial activity against Escherichia coli ATCC 25922 at 100 ug/ml by cup-plate method.
Test [3] relates to Escherichia coli. In words: Antibacterial activity against Escherichia coli ATCC 25922 at 200 ug/ml by cup-plate method.
In test [4] the test system is Candida albicans. As to the kind of experiment: Antifungal activity against Candida albicans ATCC 10231 at 200 ug/ml by cup-plate method.
In test [5] the test system is Candida albicans. As to the kind of experiment: Antifungal activity against Candida albicans ATCC 10231 at 100 ug/ml by cup-plate method.
Test [6] deals with Pseudomonas aeruginosa. In words: Antibacterial activity against Pseudomonas aeruginosa ATCC 9027 at 200 ug/ml by cup-plate method.
Test [7] deals with Staphylococcus aureus. In words: Antibacterial activity against Staphylococcus aureus ATCC 9144 at 100 ug/ml by cup-plate method.
The test system of test [8] is Bacillus subtilis. In words: Antibacterial activity against Bacillus subtilis ATCC 6633 at 100 ug/ml by cup-plate method.
Test [9] relates to Staphylococcus aureus. As to the kind of experiment: Antibacterial activity against Staphylococcus aureus ATCC 9144 at 200 ug/ml by cup-plate method.
For test [10], the system named is Bacillus subtilis. As to the kind of experiment: Antibacterial activity against Bacillus subtilis ATCC 6633 at 200 ug/ml by cup-plate method.

In the case of `O=C(c1cccnc1Nc1nc2ccccc2s1)N1CCN(CCO)CC1`, the zone of inhibition at 100 µg/mL with Pseudomonas aeruginosa [1] was 8 mm; in the test on Escherichia coli [2] it was 7 mm; with Candida albicans [5], 3 mm; in the test with Staphylococcus aureus [7] it was 6 mm; with Bacillus subtilis [8], 6 mm. For the same molecule, the zone of inhibition at 200 µg/mL stood at 8 mm in the test with Escherichia coli [3]; 5 mm in the test on Candida albicans [4]; 9 mm in the test on Pseudomonas aeruginosa [6]; 7 mm in the test with Staphylococcus aureus [9]; 10 mm in the test with Bacillus subtilis [10].
In the case of `Cc1cccc2sc(Nc3ncccc3C(=O)N3CCNC(Cl)C3Cl)nc12` (stereo not given), the zone of inhibition at 100 µg/mL amounted to 6 mm in the test with Pseudomonas aeruginosa [1]; 8 mm in the test with Escherichia coli [2]; 0 mm in the test on Candida albicans [5]; 4 mm in the test on Staphylococcus aureus [7]; 4 mm in the test on Bacillus subtilis [8]. In addition, the zone of inhibition at 200 µg/mL with Escherichia coli [3] was 10 mm; in the test on Candida albicans [4], 0 mm; in the test on Pseudomonas aeruginosa [6] it was 7 mm; in the test on Staphylococcus aureus [9], 6 mm; in the test on Bacillus subtilis [10], 4 mm.
As to `O=C(c1cccnc1Nc1nc2c(Cl)cccc2s1)N1CCN(CCO)CC1`, the zone of inhibition at 100 µg/mL in the test with Pseudomonas aeruginosa [1] came out at 7 mm; with Escherichia coli [2] it was 6 mm; in the test with Candida albicans [5], 3 mm; in the test with Staphylococcus aureus [7] it was 7 mm; in the test with Bacillus subtilis [8], 7 mm. Further, the zone of inhibition at 200 µg/mL with Escherichia coli [3] amounted to 9 mm; with Candida albicans [4] it was 6 mm; with Pseudomonas aeruginosa [6], 9 mm; with Staphylococcus aureus [9] it was 7 mm; in the test on Bacillus subtilis [10], 8 mm.
In the case of `O=C(c1cccnc1Nc1nc2ccc(Cl)cc2s1)N1CCN(CCO)CC1`, the zone of inhibition at 100 µg/mL came to 7 mm with Pseudomonas aeruginosa [1]; 6 mm in the test with Escherichia coli [2]; 0 mm with Candida albicans [5]; 8 mm in the test with Staphylococcus aureus [7]; 7 mm with Bacillus subtilis [8]. In addition, the zone of inhibition at 200 µg/mL in the test on Escherichia coli [3] stood at 10 mm; in the test on Candida albicans [4] it was 1 mm; with Pseudomonas aeruginosa [6], 10 mm; with Staphylococcus aureus [9] it was 9 mm; with Bacillus subtilis [10], 9 mm.
For `Cc1ccc2sc(Nc3ncccc3C(=O)N3CCN(CCO)CC3)nc2c1`, the zone of inhibition at 100 µg/mL in the test with Pseudomonas aeruginosa [1] came to 5 mm; with Escherichia coli [2], 6 mm; in the test with Candida albicans [5], 1 mm; in the test on Staphylococcus aureus [7] it was 8 mm; with Bacillus subtilis [8], 8 mm. Besides, the zone of inhibition at 200 µg/mL worked out at 10 mm in the test on Escherichia coli [3]; 2 mm in the test on Candida albicans [4]; 6 mm with Pseudomonas aeruginosa [6]; 10 mm with Staphylococcus aureus [9]; 8 mm with Bacillus subtilis [10].
Turning to `Cc1ccc2nc(Nc3ncccc3C(=O)N3CCNC(Cl)C3Cl)sc2c1` (stereo not given), the zone of inhibition at 100 µg/mL in the test with Pseudomonas aeruginosa [1] turned out to be 0 mm; with Escherichia coli [2], 3 mm; with Candida albicans [5], 2 mm; in the test with Staphylococcus aureus [7], 3 mm; in the test with Bacillus subtilis [8], 0 mm. The zone of inhibition at 200 µg/mL came to 3 mm with Escherichia coli [3]; 5 mm in the test with Candida albicans [4]; 0 mm with Pseudomonas aeruginosa [6]; 4 mm in the test with Staphylococcus aureus [9]; 0 mm in the test on Bacillus subtilis [10].
Consider `COc1cccc2sc(Nc3ncccc3C(=O)N3CCNC(Cl)C3Cl)nc12` (stereo not given), for which the zone of inhibition at 100 µg/mL with Pseudomonas aeruginosa [1] was found to be 7 mm; in the test on Escherichia coli [2] it was 0 mm; with Candida albicans [5], 3 mm; in the test with Staphylococcus aureus [7] it was 6 mm; with Bacillus subtilis [8] it was 8 mm. Also, the zone of inhibition at 200 µg/mL came out at 4 mm in the test on Escherichia coli [3]; 4 mm with Candida albicans [4]; 8 mm in the test on Pseudomonas aeruginosa [6]; 6 mm with Staphylococcus aureus [9]; 9 mm with Bacillus subtilis [10].

(Values after ChEMBL document CHEMBL3046819, “Synthesis and antimicrobial activity of new pyridine derivatives-I” (2011).)
